According to US11793823B2, “Compounds and pharmaceutical uses thereof” (SyneuRx International (Taiwan) Corp., priority 2020, dated 2023):

What follows are compounds tested against human D-amino acid oxidase (hDAAO) (Homo sapiens (Human), UniProt P14920) (assay: In vitro human D-amino acid oxidase (hDAAO) activity, D-Serine/Amplex Red fluorescence). Conditions: D-Serine substrate, 20 min.
Assay type: biochemical
Description: The hDAAO inhibitory activities were measured by using D-Serine as a substrate to produce H2O2. The produced H2O2 would be oxidized by peroxidase, and the produced free radicals would further react with Amplex Red reagent to emit fluorescence. The intensity of fluorescence at 590 nm would be measured to represent the activity of hDAAO. All compounds were dissolved in DMSO. Each compound was diluted with DMSO in 3-fold serial dilution to create a dose response curve. Each sample was added in triplicate, 1 µL/well, into 96-well black plates. Positive control wells were added with 1 μL of DMSO. Then 49 μL of assay buffer (100 mM Tris-HCl, pH 8.5) containing 1.2 ng/mL hDAAO, 900 nM FAD, 0.2 units/mL HRP, and 100 μM Amplex Red was added to each well of the plate using a multichannel pipette. Next, 50 μL of 100 mM D-Serine in assay buffer was added. The reaction plates were then incubated in the dark at room temperature. The fluorescence readout was detected at 0 and 20 mins by Molecular Device Gemini EM fluorescence reader using the following settings: excitation filter 530 nm, and emission filter 590 nm. The percentage of inhibition values for each well was calculated with the following equation: The percentage of inhibition=(fluorescence sample, 20 min−fluorescence sample, 0 min)/(fluorescence DMSO, 20 min−fluorescence DMSO, 0 min)×100%
The nonlinear curve fitting model in GraphPad Prism was used to calculate IC50 value for each compound.

human D-amino acid oxidase (hDAAO), sequence (P14920 whole entry): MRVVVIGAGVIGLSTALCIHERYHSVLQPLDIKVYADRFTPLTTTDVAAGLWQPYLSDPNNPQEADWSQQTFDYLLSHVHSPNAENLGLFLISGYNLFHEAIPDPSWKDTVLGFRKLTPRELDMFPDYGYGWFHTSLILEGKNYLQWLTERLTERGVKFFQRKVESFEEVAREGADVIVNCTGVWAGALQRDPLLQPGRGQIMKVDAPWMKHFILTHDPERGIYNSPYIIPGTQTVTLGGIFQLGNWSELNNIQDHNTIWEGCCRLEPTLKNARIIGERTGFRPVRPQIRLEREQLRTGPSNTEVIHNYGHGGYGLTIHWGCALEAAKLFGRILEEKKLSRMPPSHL

Q: How did the IC50 turn out when O=C(Oc1cc(OC(=O)c2cc(O)c(O)c(OC(=O)c3cc(O)c(O)c(OC(=O)c4cc(O)c(O)c(OC(=O)c5cc(O)c(O)c(OC(=O)c6cc(O)c(O)c(O)c6)c5)c4)c3)c2)cc(OC(=O)c2cc(CCc3ccc(C(F)(F)F)cc3)n[nH]2)c1)c1cc(O)c(O)c(OC(=O)c2cc(O)c(O)c(OC(=O)c3cc(O)c(O)c(OC(=O)c4cc(O)c(O)c(OC(=O)c5cc(O)c(O)c(O)c5)c4)c3)c2)c1 [Compound 107, 5-((3-(4-(trifluoromethyl)phenethyl)-1H-pyrazole-5-carbonyl)oxy)-1,3-phenylene bis(3-((3-((3-((3,4-dihydroxy-5-((3,4,5-trihydroxybenzoyl)oxy)benzoyl)oxy)-4,5-dihydroxybenzoyl)oxy)-4,5-dihydroxybenzoyl)oxy)-4,5-dihydroxybenzoate)] was run?
A: The IC50 was 7 nM.

Q: For O=C(OC[C@H]1O[C@H](OC(=O)c2cc(O)c(O)c(OC(=O)c3cc(O)c(O)c(O)c3)c2)[C@H](OC(=O)c2cc(O)c(O)c(OC(=O)c3cc(O)c(O)c(O)c3)c2)[C@@H]1OC(=O)c1cc(O)c(O)c(OC(=O)c2cc(O)c(O)c(O)c2)c1)c1cc(O)c(O)c(OC(=O)c2cc(O)c(O)c(O)c2)c1 [Compound 134, (2R,3R,4R,5R)-5-(((3,4-dihydroxy-5-((3,4,5-trihydroxybenzoyl)oxy)benzoyl)oxy)methyl)tetrahydrofuran-2,3,4-triyl tris(3,4-dihydroxy-5-((3,4,5-trihydroxybenzoyl)oxy)benzoate)], which IC50 is on record?
A: Its IC50 is 8 nM.

Q: For O=C(Oc1cc(C(=O)O[C@H]2OC[C@@H](OC(=O)c3cc(O)c(O)c(OC(=O)c4cc(O)c(O)c(O)c4)c3)[C@H](OC(=O)c3cc(O)c(O)c(OC(=O)c4cc(O)c(O)c(O)c4)c3)[C@H]2OC(=O)c2cc(O)c(O)c(OC(=O)c3cc(O)c(O)c(O)c3)c2)cc(O)c1O)c1cc(O)c(O)c(O)c1 [Compound 117, (2R,3R,4S,5R)-tetrahydro-2H-pyran-2,3,4,5-tetrayl tetrakis(3,4-dihydroxy-5-((3,4,5-trihydroxybenzoyl)oxy)benzoate)], which IC50 is on record?
A: Its IC50 is 9 nM.

Q: O=C(O)c1cc(O)c(O)c(OC(=O)c2cc(O)c(O)c(OC(=O)c3cc(O)c(O)c(OC(=O)c4cc(O)c(O)c(OC(=O)c5cc(O)c(O)c(OC(=O)c6cc(CCc7ccccc7)n[nH]6)c5)c4)c3)c2)c1 [Compound 34, 3-((3-((3-((3-((3,4-dihydroxy-5-((3-phenethyl-1H-pyrazole-5-carbonyl)oxy)benzoyl)oxy)-4,5-dihydroxybenzoyl)oxy)-4,5-dihydroxybenzoyl)oxy)-4,5-dihydroxybenzoyl)oxy)-4,5-dihydroxybenzoic acid] was tested. Which IC50 did it give?
A: The IC50 was 68 nM.

Q: With O=C(O)c1cc(O)c(O)c(OC(=O)c2cc(O)c(O)c(OC(=O)c3cc(O)c(O)c(OC(=O)c4cc(O)c(O)c(OC(=O)c5cc(O)c(O)c(OC(=O)c6ccc[nH]6)c5)c4)c3)c2)c1 [Compound 25, 3-((3-((3-((3-((3-((1H-pyrrole-2-carbonyl)oxy)-4,5-dihydroxybenzoyl)oxy)-4,5-dihydroxybenzoyl)oxy)-4,5-dihydroxybenzoyl)oxy)-4,5-dihydroxybenzoyl)oxy)-4,5-dihydroxybenzoic acid] as the compound, how does the IC50 read?
A: The IC50 was 89 nM.

Q: How did the IC50 turn out when O=C(Oc1cc(C(=O)Oc2cc(C(=O)O[C@H]3OC[C@@H](OC(=O)c4cc(O)c(O)c(OC(=O)c5cc(O)c(O)c(OC(=O)c6cc(O)c(O)c(O)c6)c5)c4)[C@H](OC(=O)c4cc(O)c(O)c(OC(=O)c5cc(O)c(O)c(OC(=O)c6cc(O)c(O)c(O)c6)c5)c4)[C@H]3OC(=O)c3cc(O)c(O)c(OC(=O)c4cc(O)c(O)c(OC(=O)c5cc(O)c(O)c(O)c5)c4)c3)cc(O)c2O)cc(O)c1O)c1cc(O)c(O)c(O)c1 [Compound 119, (2R,3R,4S,5R)-tetrahydro-2H-pyran-2,3,4,5-tetrayl tetrakis(3-((3,4-dihydroxy-5-((3,4,5-trihydroxybenzoyl)oxy)benzoyl)oxy)-4,5-dihydroxybenzoate)] was run?
A: The IC50 was 5 nM.

Q: With O=C(Oc1cc(C(=O)Oc2cc(C(=O)Oc3cc(C(=O)Oc4cc(C(=O)O[C@H]5OC[C@@H](OC(=O)c6cc(O)c(O)c(OC(=O)c7cc(O)c(O)c(OC(=O)c8cc(O)c(O)c(OC(=O)c9cc(O)c(O)c(OC(=O)c%10cc(O)c(O)c(O)c%10)c9)c8)c7)c6)[C@H](OC(=O)c6cc(O)c(O)c(OC(=O)c7cc(O)c(O)c(OC(=O)c8cc(O)c(O)c(OC(=O)c9cc(O)c(O)c(OC(=O)c%10cc(O)c(O)c(O)c%10)c9)c8)c7)c6)[C@H]5OC(=O)c5cc(O)c(O)c(OC(=O)c6cc(O)c(O)c(OC(=O)c7cc(O)c(O)c(OC(=O)c8cc(O)c(O)c(OC(=O)c9cc(O)c(O)c(O)c9)c8)c7)c6)c5)cc(O)c4O)cc(O)c3O)cc(O)c2O)cc(O)c1O)c1cc(O)c(O)c(O)c1 [Compound 123, (2R,3R,4S,5R)-tetrahydro-2H-pyran-2,3,4,5-tetrayl tetrakis(3-((3-((3-((3,4-dihydroxy-5-((3,4,5-trihydroxybenzoyl)oxy)benzoyl)oxy)-4,5-dihydroxybenzoyl)oxy)-4,5-dihydroxybenzoyl)oxy)-4,5-dihydroxybenzoate)] as the compound, how does the IC50 read?
A: The IC50 was 2.4 nM.

Q: With O=C(OC[C@H]1O[C@H](OC(=O)c2cc(O)c(O)c(OC(=O)c3cc(O)c(O)c(OC(=O)c4cc(O)c(O)c(OC(=O)c5cc(O)c(O)c(OC(=O)c6cc(O)c(O)c(O)c6)c5)c4)c3)c2)[C@H](OC(=O)c2cc(O)c(O)c(OC(=O)c3cc(O)c(O)c(OC(=O)c4cc(O)c(O)c(OC(=O)c5cc(O)c(O)c(OC(=O)c6cc(O)c(O)c(O)c6)c5)c4)c3)c2)[C@@H]1OC(=O)c1cc(O)c(O)c(OC(=O)c2cc(O)c(O)c(OC(=O)c3cc(O)c(O)c(OC(=O)c4cc(O)c(O)c(OC(=O)c5cc(O)c(O)c(O)c5)c4)c3)c2)c1)c1cc(O)c(O)c(OC(=O)c2cc(O)c(O)c(OC(=O)c3cc(O)c(O)c(OC(=O)c4cc(O)c(O)c(OC(=O)c5cc(O)c(O)c(O)c5)c4)c3)c2)c1 [Compound 140, (2R,3R,4R,5R)-5-(((3-((3-((3-((3,4-dihydroxy-5-((3,4,5-trihydroxybenzoyl)oxy)benzoyl)oxy)-4,5-dihydroxybenzoyl)oxy)-4,5-dihydroxybenzoyl)oxy)-4,5-dihydroxybenzoyl)oxy)methyl)tetrahydrofuran-2,3,4-triyl tris(3-((3-((3-((3,4-dihydroxy-5-((3,4,5-trihydroxybenzoyl)oxy)benzoyl)oxy)-4,5-dihydroxybenzoyl)oxy)-4,5-dihydroxybenzoyl)oxy)-4,5-dihydroxybenzoate)] as the compound, how does the IC50 read?
A: The IC50 was 3 nM.

Q: With O=C(Oc1cc(C(=O)Oc2cc(C(=O)Oc3cc(C(=O)O[C@@H]4OC[C@@H](OC(=O)c5cc(O)c(O)c(OC(=O)c6cc(O)c(O)c(OC(=O)c7cc(O)c(O)c(OC(=O)c8cc(O)c(O)c(O)c8)c7)c6)c5)[C@H](OC(=O)c5cc(O)c(O)c(OC(=O)c6cc(O)c(O)c(OC(=O)c7cc(O)c(O)c(OC(=O)c8cc(O)c(O)c(O)c8)c7)c6)c5)[C@H]4OC(=O)c4cc(O)c(O)c(OC(=O)c5cc(O)c(O)c(OC(=O)c6cc(O)c(O)c(OC(=O)c7cc(O)c(O)c(O)c7)c6)c5)c4)cc(O)c3O)cc(O)c2O)cc(O)c1O)c1cc(O)c(O)c(O)c1 [Compound 128, (2S,3R,4S,5R)-tetrahydro-2H-pyran-2,3,4,5-tetrayl tetrakis(3-((3-((3,4-dihydroxy-5-((3,4,5-trihydroxybenzoyl)oxy)benzoyl)oxy)-4,5-dihydroxybenzoyl)oxy)-4,5-dihydroxybenzoate)] as the compound, how does the IC50 read?
A: The IC50 was 3.3 nM.

Q: How did the IC50 turn out when O=C(OC[C@H]1O[C@@H](OC(=O)c2cc(O)c(O)c(OC(=O)c3cc(O)c(O)c(OC(=O)c4cc(O)c(O)c(OC(=O)c5cc(O)c(O)c(OC(=O)c6cc(O)c(O)c(O)c6)c5)c4)c3)c2)[C@H](OC(=O)c2cc(O)c(O)c(OC(=O)c3cc(O)c(O)c(OC(=O)c4cc(O)c(O)c(OC(=O)c5cc(O)c(O)c(OC(=O)c6cc(O)c(O)c(O)c6)c5)c4)c3)c2)[C@@H]1OC(=O)c1cc(O)c(O)c(OC(=O)c2cc(O)c(O)c(OC(=O)c3cc(O)c(O)c(OC(=O)c4cc(O)c(O)c(OC(=O)c5cc(O)c(O)c(O)c5)c4)c3)c2)c1)c1cc(O)c(O)c(OC(=O)c2cc(O)c(O)c(OC(=O)c3cc(O)c(O)c(OC(=O)c4cc(O)c(O)c(OC(=O)c5cc(O)c(O)c(O)c5)c4)c3)c2)c1 [Compound 148, (2S,3R,4R,5R)-5-(((3-((3-((3-((3,4-dihydroxy-5-((3,4,5-trihydroxybenzoyl)oxy)benzoyl)oxy)-4,5-dihydroxybenzoyl)oxy)-4,5-dihydroxybenzoyl)oxy)-4,5-dihydroxybenzoyl)oxy)methyl)tetrahydrofuran-2,3,4-triyl tris(3-((3-((3-((3,4-dihydroxy-5-((3,4,5-trihydroxybenzoyl)oxy)benzoyl)oxy)-4,5-dihydroxybenzoyl)oxy)-4,5-dihydroxybenzoyl)oxy)-4,5-dihydroxybenzoate)] was run?
A: The IC50 was 4 nM.

Q: O=C(Oc1cc(C(=O)Oc2cc(C(=O)Oc3cc(C(=O)Oc4cc(C(=O)OC5CCCCCC5)cc(O)c4O)cc(O)c3O)cc(O)c2O)cc(O)c1O)c1cc(O)c(O)c(O)c1 [Compound 100, cycloheptyl 3-((3-((3-((3,4-dihydroxy-5-((3,4,5-trihydroxybenzoyl)oxy)benzoyl)oxy)-4,5-dihydroxybenzoyl)oxy)-4,5-dihydroxybenzoyl)oxy)-4,5-dihydroxybenzoate] was tested. Which IC50 did it give?
A: The IC50 was 19 nM.

Q: How did the IC50 turn out when O=C(O)c1cc(O)c(O)c(OC(=O)c2cc(O)c(O)c(OC(=O)c3cc(O)c(O)c(OC(=O)c4cc(O)c(O)c(OC(=O)c5cc(O)c(O)c(OC(=O)c6cc(CCc7ccc(F)cc7)n[nH]6)c5)c4)c3)c2)c1 [Compound 50, 3-((3-((3-((3-((3-((3-(4-fluorophenethyl)-1H-pyrazole-5-carbonyl)oxy)-4,5-dihydroxybenzoyl)oxy)-4,5-dihydroxybenzoyl)oxy)-4,5-dihydroxybenzoyl)oxy)-4,5-dihydroxybenzoyl)oxy)-4,5-dihydroxybenzoic acid] was run?
A: The IC50 was 38 nM.
